The NIST ThermoML archive (doi:10.1016/j.fluid.2006.01.022)

What was measured:
[1] = 101.33 kPa, Liquid, Alternating current cell with electrodes
[2] = xn = mol fraction of the nth substance listed; conditions: Liquid, Alternating current cell with electrodes

CCOS(=O)(=O)[O-].CCn1cc[n+](C)c1 [1-ethyl-3-methylimidazolium ethyl sulfate]
[1]
Conditions	electrical conductivity [S/m]
258.1 K	0.0286
263.1 K	0.0374
268.1 K	0.0495
273.1 K	0.0727
278.1 K	0.105
283.1 K	0.139
288.1 K	0.202
293.1 K	0.291
298.1 K	0.382
303.1 K	0.485
308.1 K	0.606
313.1 K	0.724
318.1 K	0.861
323.1 K	1.01
328.1 K	1.18
333.1 K	1.35
338.1 K	1.54
343.1 K	1.75
348.1 K	1.95
353.1 K	2.18
358.1 K	2.41
363.1 K	2.68
368.1 K	3
373.1 K	3.29
378.1 K	3.57
383.1 K	3.86
388.1 K	4.15
393.1 K	4.47
398.1 K	4.77
403.1 K	5.09
408.1 K	5.39
413.1 K	5.68
418.1 K	6
423.1 K	6.29
428.1 K	6.58
433.1 K	6.86

[Br][Al]([Br])[Br] [aluminum bromide] + CCn1cc[n+](C)c1.[Br-]
electrical conductivity [S/m], [2]
Conditions	x1 = 0.3	x1 = 0.6
258.1 K	0.048	0.0432
263.1 K	0.0898	0.0717
268.1 K	0.122	0.113
273.1 K	0.22	0.16
278.1 K	0.284	0.226
283.1 K	0.454	0.338
288.1 K	0.599	0.447
293.1 K	0.784	0.645
298.1 K	0.979	0.877
303.1 K	1.21	1.14
308.1 K	1.49	1.42
313.1 K	1.82	1.75
318.1 K	2.14	2.11
323.1 K	2.54	2.56
328.1 K	3.05	3.04
333.1 K	3.5	3.62
338.1 K	4.05	4.22
343.1 K	4.6	4.87
348.1 K	5.14	5.56
353.1 K	5.79	6.35
358.1 K	6.95	7.16
363.1 K	7.62	7.79
368.1 K	8.28	8.57
373.1 K	8.95	9.46
378.1 K	9.7	10.4
383.1 K	10.6	11.4
388.1 K	11.4	12.3
393.1 K	12	12.8
398.1 K	–	13.7
403.1 K	–	14.5
408.1 K	–	15.3
413.1 K	–	15.8
418.1 K	–	16.5

CCn1cc[n+](C)c1.F[B-](F)(F)F [1-ethyl-3-methylimidazolium tetrafluoroborate]
[1]
Conditions	electrical conductivity [S/m]
258.1 K	0.245
263.1 K	0.296
268.1 K	0.445
273.1 K	0.612
278.1 K	0.735
283.1 K	0.896
288.1 K	1.09
293.1 K	1.3
298.1 K	1.57
303.1 K	1.79
308.1 K	2.02
313.1 K	2.28
318.1 K	2.55
323.1 K	2.85
328.1 K	3.22
333.1 K	3.56
338.1 K	3.95
343.1 K	4.35
348.1 K	4.77
353.1 K	5.22
358.1 K	5.55
363.1 K	5.95
368.1 K	6.46
373.1 K	6.9
378.1 K	7.36
383.1 K	7.83
388.1 K	8.32
393.1 K	8.77
398.1 K	9.29
403.1 K	9.79
408.1 K	10.3
413.1 K	10.8
418.1 K	11.3
423.1 K	11.8
428.1 K	12.3
433.1 K	12.7

[Cl][Al]([Cl])[Cl] [aluminum chloride] + CCn1cc[n+](C)c1.[Cl-]
electrical conductivity [S/m], [2]
Conditions	x1 = 0.33	x1 = 0.6
253.1 K	0.0315	0.0377
258.1 K	0.0515	0.0517
263.1 K	0.0855	0.1
268.1 K	0.127	0.143
273.1 K	0.195	0.206
278.1 K	0.3	0.283
283.1 K	0.39	0.385
288.1 K	0.53	0.515
293.1 K	0.705	0.669
298.1 K	0.907	0.861
303.1 K	1.11	1.08
308.1 K	1.37	1.32
313.1 K	1.67	1.6
318.1 K	2.02	1.91
323.1 K	2.4	2.26
328.1 K	2.81	2.64
333.1 K	3.29	3.11
338.1 K	3.8	3.56
343.1 K	4.34	4.02
348.1 K	4.9	4.56
353.1 K	5.68	5.08
358.1 K	6.27	5.63
363.1 K	7.13	6.17
368.1 K	7.95	7.28
373.1 K	8.5	8.09
378.1 K	9.11	9.1
383.1 K	9.97	9.72
388.1 K	10.9	10.1
393.1 K	11.8	10.4
398.1 K	12.3	–
403.1 K	12.7	–
